These results are taken from PMC8629322 (ACS chemical neuroscience, 2020).

The subject of one series is poly(A). The settings on record: cited from earlier work.
The nature of a further series: Cell viability assay. The conditions noted are these: human, HEK293 cells.
For series [1], the target named is T1, biotinylated RNA:GST-MSUT2 ZF (Homo sapiens, UniProt Q6PJT7).
T1 sequence (Q6PJT7 601-736): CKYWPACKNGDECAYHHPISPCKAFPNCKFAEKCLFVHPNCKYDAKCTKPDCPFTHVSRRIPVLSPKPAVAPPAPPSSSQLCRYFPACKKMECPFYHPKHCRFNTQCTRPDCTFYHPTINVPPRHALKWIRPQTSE
Put plainly: AlphaScreen orthogonal poly. The series is classed as binding. The settings on record: for inhibition activity by AlphaScreen: dose-response, 50 nM biotinylated RNA, 50 nM GST-MSUT2. (Alpha assays give light when donor and acceptor beads are brought close together.)

For series [2] the following is noted: cited from earlier work.
A further series deals with T2, PABPN1 (Homo sapiens, UniProt Q86U42).
T2 sequence (Q86U42 1-306): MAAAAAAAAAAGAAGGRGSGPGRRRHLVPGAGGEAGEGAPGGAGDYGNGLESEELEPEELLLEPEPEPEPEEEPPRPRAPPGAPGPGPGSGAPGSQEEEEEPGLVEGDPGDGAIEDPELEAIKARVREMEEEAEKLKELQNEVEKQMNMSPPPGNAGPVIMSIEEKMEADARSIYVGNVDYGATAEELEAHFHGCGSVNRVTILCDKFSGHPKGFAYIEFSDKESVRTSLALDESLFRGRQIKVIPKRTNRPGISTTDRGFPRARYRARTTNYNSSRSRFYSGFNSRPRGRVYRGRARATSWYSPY
As to the kind of experiment: PABPN1 fluorescence polarization counter screen. The series is classed as binding. A general note: Polarisation of emitted light reports the rotation of a fluorescent probe.

The target of series [3] is T3, FAM-RNA:MSUT2 ZF complex (poly(A):MSUT2 RNA-protein interaction) (Homo sapiens, UniProt Q6PJT7).
T3 sequence (Q6PJT7 601-736): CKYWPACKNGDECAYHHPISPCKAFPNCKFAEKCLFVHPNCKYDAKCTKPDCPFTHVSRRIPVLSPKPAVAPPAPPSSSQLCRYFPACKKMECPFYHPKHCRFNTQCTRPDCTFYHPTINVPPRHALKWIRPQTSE
Put plainly: Fluorescence polarization assay of FAM-poly. The class given is binding.

The subject of series [4] is albumin and α1-acid glycoprotein in the plasma. The conditions noted are these: cited from earlier work.
Series [5] deals with hippocampus neuronal loss. The settings on record: rat model of chronic cerebral hypoperfusion; cited from earlier work.
For a further series, the system named is efflux transporters. The settings on record: cited from earlier work.
Series [6] addresses T4, MSUT2 ZF (CCCH domains only) (UniProt Q6PJT7 601-736).
T4 sequence: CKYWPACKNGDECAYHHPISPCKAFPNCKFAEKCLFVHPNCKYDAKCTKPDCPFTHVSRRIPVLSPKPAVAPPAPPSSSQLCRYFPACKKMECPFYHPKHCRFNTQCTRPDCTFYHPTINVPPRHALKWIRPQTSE
Put plainly: competition.

As usually defined, the viability is a per cent measure of how many cells are alive, often set against a control. A lower viability goes with a greater loss of cells. Usually IC50 stands for the concentration needed to halve the response being measured. In the case of `CC(C)/N=c1\cc2n(-c3ccc(Cl)cc3)c3ccccc3nc-2cc1Nc1ccc(Cl)cc1` [clofazimine], the “interaction with poly(A)” value with poly(A) is recorded as “little interaction”. The same molecule came in with a viability at 72 h in the series “Cell viability assay” of more than 90%. Also, the “inhibition activity by AlphaScreen” value in series [1] was “dose-dependent inhibition activity”. The “crossing of the blood-brain barrier” value in series [2] was “unable to cross the blood-brain barrier”. Moreover, the IC50 stood at 23 µM against PABPN1 and 0.731 µM in series [3].

Regarding `CNCC[C@H](Oc1cccc2ccccc12)c1cccs1` [duloxetine], the “bound to albumin and α1-acid glycoprotein in the plasma” value in [4] is recorded as ~ 90%. Further, the viability at 72 h in “Cell viability assay” is more than 90%. In series [1], the “inhibition activity by AlphaScreen” value is given as “dose-dependent inhibition activity”. In series [1] (over a single log unit), the “concentration range of inhibition measured by AS” value fell in the range of 1.0 to 10 µM. The “neuronal loss in the hippocampus” value in series [5] is on record as “attenuated neuronal loss in the hippocampus”. Further, the “penetration into cerebral spinal fluid” value in [2] is “crosses into cerebral spinal fluid at a much lower rate than other antidepressants”. On PABPN1, this molecule showed an IC50 of 4.98 µM. Moreover, the “concentration range of inhibitory response in FP assay” value in [3] (acted over 4 log units) fell in the range of 0.01 to 10 µM.

On to `CC(C(=O)O)c1ccc(-c2ccccc2)c(F)c1` (centres unmarked) [flurbiprofen], for which, on PABPN1, the IC50 amounted to 6.69 µM.

As for `CN1C2CCCC1CC(NC(=O)c1nn(C)c3ccccc13)C2` (centres unmarked) [granisetron], the IC50 against PABPN1 came out at 8.65 µM; in series [3], 0.306 µM.

`OCCOCCN1CCN(C(c2ccccc2)c2ccc(Cl)cc2)CC1` (centres unmarked) [hydroxyzine]: half-maximal inhibition on PABPN1 (IC50) was put at 9.09 µM. That is a single-digit micromolar value.

As to `CC(C)(C)NC(=O)[C@@H]1CN(Cc2cccnc2)CCN1C[C@@H](O)C[C@@H](Cc1ccccc1)C(=O)N[C@H]1c2ccccc2C[C@H]1O` [indinavir], the IC50 against PABPN1 is 35.8 µM; in series [3] it was 0.247 µM.

As for `CC(C)(C)NC(=O)[C@@H]1C[C@@H]2CCCC[C@@H]2CN1C[C@@H](O)[C@H](Cc1ccccc1)NC(=O)[C@H](CC(N)=O)NC(=O)c1ccc2ccccc2n1` [saquinavir], in the series with efflux transporters, the efflux transporter substrate result is “substrate of efflux transporters”. For the same molecule, the viability at 72 h, 40 µM in the series “Cell viability assay” is 65%. The “inhibition activity by AlphaScreen” value in series [1] is “dose-dependent inhibition activity”. The brain penetrance entry in series [2] is recorded as “low brain penetrance”. Besides, on PABPN1, half-maximal inhibition (IC50) required 0.617 µM.

AAAAAAAAAAAAAAA (ssRNA) [unlabeled poly(A)15 RNA] had an IC50 in [6] of 0.29 µM.
